Results on 25 compounds are retold here after patent US11420958B2, “Aryl and heteroaryl substituted indole compounds” (BRISTOL-MYERS SQUIBB COMPANY, priority 2017, dated 2022).

A value given as a limit tells only on which side of the number the result lay.

Holding throughout (format): cell-based
The target in one test is human TLR7 (Homo sapiens (Human), UniProt Q9NYK1). As to the kind of experiment: TLR7 inhibition reporter assay (HEK-Blue, SEAP). As to conditions: HEK-Blue cells overexpressing human TLR7, gardiquimod 7.5 μM stimulation. Put shortly: (§1)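 HEK-Blue cells overexpressing the receptor carry a SEAP reporter under IFN-β minimal promoter with NF-κB/AP-1 sites. Compounds (0.05 nM–50 μM final) were preincubated 30 min at room temperature, then cells were stimulated with gardiquimod 7.5 μM (TLR7), R848 15.9 μM (TLR8) or ODN2006 5 nM (TLR9) for 22 h at 37 °C.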
(In general: A reporter such as luciferase makes a cellular process visible.)

The target of a further test is human TLR9 (Homo sapiens (Human), UniProt Q9NR96). As to the kind of experiment: TLR9 inhibition reporter assay (HEK-Blue, SEAP). As to conditions: HEK-Blue cells overexpressing human TLR9, ODN2006 5 nM stimulation. Put shortly: as §1
In the next test the target is human TLR8 (Homo sapiens (Human), UniProt Q9NR97). As to the kind of experiment: TLR8 inhibition reporter assay (HEK-Blue, SEAP). As to conditions: HEK-Blue cells overexpressing human TLR8, R848 15.9 μM stimulation. Put shortly: as §1
Sequence of human TLR8 (Q9NR97 27-1041): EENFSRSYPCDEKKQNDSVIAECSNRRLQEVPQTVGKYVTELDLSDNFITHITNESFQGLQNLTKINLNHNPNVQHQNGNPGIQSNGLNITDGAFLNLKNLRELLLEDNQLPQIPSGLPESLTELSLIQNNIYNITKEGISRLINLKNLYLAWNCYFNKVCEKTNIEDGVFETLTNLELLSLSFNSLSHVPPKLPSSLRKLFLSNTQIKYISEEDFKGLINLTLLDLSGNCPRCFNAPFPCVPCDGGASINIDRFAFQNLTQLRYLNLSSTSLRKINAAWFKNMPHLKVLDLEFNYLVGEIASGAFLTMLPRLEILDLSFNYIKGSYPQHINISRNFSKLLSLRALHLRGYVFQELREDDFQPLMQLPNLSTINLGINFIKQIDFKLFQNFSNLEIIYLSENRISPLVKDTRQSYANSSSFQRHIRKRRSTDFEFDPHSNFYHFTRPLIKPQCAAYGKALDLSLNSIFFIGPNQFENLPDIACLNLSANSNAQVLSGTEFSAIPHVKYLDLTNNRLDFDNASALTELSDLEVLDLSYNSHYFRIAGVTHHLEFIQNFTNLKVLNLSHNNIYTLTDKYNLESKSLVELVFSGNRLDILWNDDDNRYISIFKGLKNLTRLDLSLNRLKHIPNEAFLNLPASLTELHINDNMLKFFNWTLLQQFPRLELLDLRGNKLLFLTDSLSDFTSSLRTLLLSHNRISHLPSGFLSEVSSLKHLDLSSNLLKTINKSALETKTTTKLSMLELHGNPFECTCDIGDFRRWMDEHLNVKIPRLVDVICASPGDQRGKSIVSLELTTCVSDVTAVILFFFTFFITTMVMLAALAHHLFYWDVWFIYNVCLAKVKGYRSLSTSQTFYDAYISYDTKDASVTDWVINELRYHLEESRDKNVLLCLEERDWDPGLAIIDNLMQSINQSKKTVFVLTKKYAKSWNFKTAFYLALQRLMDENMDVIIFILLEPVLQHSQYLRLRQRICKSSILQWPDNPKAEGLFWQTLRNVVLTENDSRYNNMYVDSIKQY

Sequence of human TLR9 (Q9NR96 26-1032): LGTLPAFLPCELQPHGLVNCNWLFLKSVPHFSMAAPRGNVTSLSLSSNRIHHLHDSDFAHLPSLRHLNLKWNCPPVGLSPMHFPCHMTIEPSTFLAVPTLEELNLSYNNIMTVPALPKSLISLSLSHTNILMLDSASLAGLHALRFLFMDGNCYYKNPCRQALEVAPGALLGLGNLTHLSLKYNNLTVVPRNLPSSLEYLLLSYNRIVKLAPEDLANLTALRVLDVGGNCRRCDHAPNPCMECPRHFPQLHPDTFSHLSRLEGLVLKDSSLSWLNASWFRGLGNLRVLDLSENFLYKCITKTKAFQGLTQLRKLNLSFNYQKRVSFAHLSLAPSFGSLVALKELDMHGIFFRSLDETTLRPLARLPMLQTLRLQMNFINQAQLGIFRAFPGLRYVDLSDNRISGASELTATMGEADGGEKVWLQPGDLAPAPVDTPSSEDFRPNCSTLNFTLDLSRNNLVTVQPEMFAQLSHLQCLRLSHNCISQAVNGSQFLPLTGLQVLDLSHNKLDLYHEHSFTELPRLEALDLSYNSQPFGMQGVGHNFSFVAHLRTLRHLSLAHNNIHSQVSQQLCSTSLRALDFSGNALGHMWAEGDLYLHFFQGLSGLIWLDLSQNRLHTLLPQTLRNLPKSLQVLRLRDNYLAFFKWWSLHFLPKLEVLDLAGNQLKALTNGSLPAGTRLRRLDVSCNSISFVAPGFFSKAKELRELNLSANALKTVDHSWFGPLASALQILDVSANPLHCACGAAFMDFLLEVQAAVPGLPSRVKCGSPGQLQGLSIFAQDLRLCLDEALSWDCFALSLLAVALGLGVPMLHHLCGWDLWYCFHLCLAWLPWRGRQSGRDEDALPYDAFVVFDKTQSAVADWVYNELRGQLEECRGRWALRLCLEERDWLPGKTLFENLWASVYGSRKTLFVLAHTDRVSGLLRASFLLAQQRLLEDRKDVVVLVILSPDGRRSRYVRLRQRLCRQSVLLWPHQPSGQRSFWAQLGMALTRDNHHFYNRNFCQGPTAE
Sequence of human TLR7 (Q9NYK1 27-1049): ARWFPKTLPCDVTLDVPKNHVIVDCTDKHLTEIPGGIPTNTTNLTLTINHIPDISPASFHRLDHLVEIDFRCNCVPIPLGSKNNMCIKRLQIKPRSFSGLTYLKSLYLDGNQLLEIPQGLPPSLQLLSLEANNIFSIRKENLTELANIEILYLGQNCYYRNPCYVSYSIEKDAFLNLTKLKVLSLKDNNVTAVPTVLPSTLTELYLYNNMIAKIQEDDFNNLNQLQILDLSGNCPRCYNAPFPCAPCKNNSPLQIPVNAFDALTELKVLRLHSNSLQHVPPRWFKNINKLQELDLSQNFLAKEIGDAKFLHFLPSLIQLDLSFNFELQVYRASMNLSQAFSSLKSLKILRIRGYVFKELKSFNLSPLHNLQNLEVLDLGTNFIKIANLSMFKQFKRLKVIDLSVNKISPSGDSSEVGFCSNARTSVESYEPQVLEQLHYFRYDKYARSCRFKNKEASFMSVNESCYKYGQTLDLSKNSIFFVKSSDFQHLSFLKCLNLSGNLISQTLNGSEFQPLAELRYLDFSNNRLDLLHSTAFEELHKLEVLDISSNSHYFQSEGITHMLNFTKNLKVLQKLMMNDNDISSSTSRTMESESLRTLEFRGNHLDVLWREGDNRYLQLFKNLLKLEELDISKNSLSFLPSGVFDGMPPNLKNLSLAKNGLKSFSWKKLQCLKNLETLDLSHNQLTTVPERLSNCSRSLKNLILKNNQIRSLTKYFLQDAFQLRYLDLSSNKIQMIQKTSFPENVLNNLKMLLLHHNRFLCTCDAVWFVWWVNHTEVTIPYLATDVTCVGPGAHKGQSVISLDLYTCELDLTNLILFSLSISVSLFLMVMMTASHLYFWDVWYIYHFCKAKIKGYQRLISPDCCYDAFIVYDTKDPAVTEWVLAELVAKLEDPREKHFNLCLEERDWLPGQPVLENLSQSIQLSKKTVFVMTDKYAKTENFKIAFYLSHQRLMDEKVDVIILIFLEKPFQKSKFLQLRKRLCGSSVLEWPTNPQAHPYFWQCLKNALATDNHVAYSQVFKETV

One may read the IC50 as the concentration that inhibits the measured activity by half. A high value points to weaker potency in that assay. With `CC(C)c1c(-c2ccnc3[nH]ncc23)[nH]c2ccc(-c3nnc(CN4CC[C@@H](N(C)C)C4)o3)cc12` [Example 157, (R)-1-((5-(3-isopropyl-2-(1H-pyrazolo[3,4-b]pyridin-4-yl)-1H-indol-5-yl)-1,3,4-oxadiazol-2-yl)methyl)-N,N-dimethylpyrrolidin-3-amine], the IC50 amounted to 0.314 µM on human TLR7, 4.48 µM at human TLR9 and 0.018 µM on human TLR8.

Regarding `CC(C)c1c(-c2ccnc3[nH]ncc23)[nH]c2ccc(-c3nnc(CN4CCC[C@H]4C(N)=O)o3)cc12` [Example 158, (S)-1-((5-(3-isopropyl-2-(1H-pyrazolo[3,4-b]pyridin-4-yl)-1H-indol-5-yl)-1,3,4-oxadiazol-2-yl)methyl)pyrrolidine-2-carboxamide], the results for the IC50 on human TLR7, on human TLR9 and on human TLR8 were 1.39 µM, above 50 µM and 0.174 µM, respectively.

Take `Cc1cc(-c2[nH]c3ccc(-c4nnc(C5CCCN(C)C5)o4)cc3c2C(C)C)ccn1` (stereo not drawn) [Example 159, 2-(3-isopropyl-2-(2-methylpyridin-4-yl)-1H-indol-5-yl)-5-(1-methylpiperidin-3-yl)-1,3,4-oxadiazole]: the IC50 at human TLR7 amounted to 0.024 µM; at human TLR9, 1.23 µM; on human TLR8, 0.0018 µM.

For the compound `CC(C)c1c(-c2ccnc(N)c2)[nH]c2ccc(-c3nc(C(=O)NC4CCN(C(C)C)CC4)co3)cc12` [Example 160, 2-(2-(2-aminopyridin-4-yl)-3-isopropyl-1H-indol-5-yl)-N-(1-isopropylpiperidin-4-yl)oxazole-4-carboxamide], the concentration for half-maximal inhibition (IC50) against human TLR7 was 0.12 µM; against human TLR9, 3.93 µM; on human TLR8, 0.023 µM.

In the case of `COc1ccc(-c2[nH]c3ccc(-c4ccc5c(c4)NCCC5)cc3c2C(C)C)cc1OC` [Example 161, 7-(2-(3,4-dimethoxyphenyl)-3-isopropyl-1H-indol-5-yl)-1,2,3,4-tetrahydroquinoline], the IC50 at human TLR7 was 2.93 µM; at human TLR9, 5 µM; against human TLR8, 1.98 µM.

In the case of `CC(C)c1c(-c2ccnc3[nH]ncc23)[nH]c2ccc(-c3nnc(C4CCCN(C)C4)o3)cc12` (stereo not drawn) [Example 162, 2-(3-isopropyl-2-(1H-pyrazolo[3,4-b]pyridin-4-yl)-1H-indol-5-yl)-5-(1-methylpiperidin-3-yl)-1,3,4-oxadiazole], the IC50 against human TLR7 is 0.052 µM; on human TLR9, 1.38 µM; against human TLR8, 0.0017 µM.

As to `Cc1cc(-c2[nH]c3ccc(-c4nnc(C5CCN(Cc6ccccc6)CC5)[nH]4)cc3c2C(C)C)ccn1` [Example 163, 5-(5-(1-benzylpiperidin-4-yl)-4H-1,2,4-triazol-3-yl)-3-isopropyl-2-(2-methylpyridin-4-yl)-1H-indole], the IC50 against human TLR7 worked out at 0.033 µM; against human TLR9, 0.69 µM; at human TLR8 it was 0.0086 µM.

`Cc1cc(-c2[nH]c3ccc(-c4nnc(C5CCCNC5)[nH]4)cc3c2C(C)C)ccn1` (stereo not drawn) [Example 164, 3-isopropyl-2-(2-methylpyridin-4-yl)-5-(5-(piperidin-3-yl)-4H-1,2,4-triazol-3-yl)-1H-indole]: the IC50 was 0.045 µM at human TLR7, 10.4 µM against human TLR9 and 0.027 µM on human TLR8.

With `COc1ccc(-c2[nH]c3ccc(-c4ncc[nH]4)cc3c2C(C)C)cc1OC` [Example 165, 2-(3,4-dimethoxyphenyl)-5-(1H-imidazol-2-yl)-3-isopropyl-1H-indole], the 50% inhibitory concentration (IC50) was found to be 0.093 µM at human TLR7, 6.69 µM against human TLR9 and 0.0073 µM against human TLR8.

As to `CC(C)c1c(-c2ccnc(N)c2)[nH]c2ccc(-c3nnc(C(=O)N(C)C)o3)cc12` [Example 166, 5-(2-(2-aminopyridin-4-yl)-3-isopropyl-H-indol-5-yl)-N,N-dimethyl-1,3,4-oxadiazole-2-carboxamide], the IC50 is 0.284 µM against human TLR7, 29.5 µM against human TLR9 and 0.047 µM against human TLR8.

As for `CC(C)c1c(-c2ccnc3[nH]ncc23)[nH]c2ccc(-c3nnc(C4CCCN(C)C4)o3)cc12` (stereo not drawn) [Example 167, 2-(3-isopropyl-2-(1H-pyrazolo[3,4-b]pyridin-4-yl)-1H-indol-5-yl)-5-(1-methylpiperidin-3-yl)-1,3,4-oxadiazole], the IC50 against human TLR7 was determined as 0.066 µM; against human TLR9, 0.653 µM; on human TLR8, 0.0032 µM.

Consider `CC(C)c1c(-c2ccnc3[nH]ncc23)[nH]c2ccc(-c3nnc(C4CCCN(C)C4)o3)cc12` (stereo not drawn) [Example 168, 2-(3-isopropyl-2-(1H-pyrazolo[3,4-b]pyridin-4-yl)-1H-indol-5-yl)-5-(1-methylpiperidin-3-yl)-1,3,4-oxadiazole], for which the IC50 at human TLR7 stood at 0.081 µM; on human TLR9, 1.08 µM; against human TLR8, 0.0019 µM.

Take `Cc1cc(-c2[nH]c3ccc(-c4nnc(C5CCCN(C)C5)o4)cc3c2C(C)C)ccn1` (stereo not drawn) [Example 169, 2-(3-isopropyl-2-(2-methylpyridin-4-yl)-1H-indol-5-yl)-5-(1-methylpiperidin-3-yl)-1,3,4-oxadiazole]: the values for the 50% inhibitory concentration (IC50) at human TLR7, at human TLR9 and against human TLR8 were 0.027 µM, 0.564 µM and 0.0018 µM, respectively.

As for `Cc1cc(-c2[nH]c3ccc(-c4nnc(C5CCCN(C)C5)o4)cc3c2C(C)C)ccn1` (stereo not drawn) [Example 170, 2-(3-isopropyl-2-(2-methylpyridin-4-yl)-1H-indol-5-yl)-5-(1-methylpiperidin-3-yl)-1,3,4-oxadiazole], the 50% inhibitory concentration (IC50) came out at 0.011 µM against human TLR7, 0.66 µM at human TLR9 and 0.0006 µM at human TLR8.

Regarding `Cc1cc(-c2[nH]c3ccc(-c4nccs4)cc3c2C(C)C)ccn1` [Example 171, 2-(3-isopropyl-2-(2-methylpyridin-4-yl)-1H-indol-5-yl)thiazole], the concentration for half-maximal inhibition (IC50) against human TLR7 was 0.159 µM; at human TLR9, above 50 µM; at human TLR8, 0.019 µM.

`Cc1cc(-c2[nH]c3ccc(-c4nc(C(=O)N5CC6CNCC6C5)co4)cc3c2C(C)C)ccn1` (stereo not drawn) [Example 172, (hexahydropyrrolo[3,4-c]pyrrol-2(1H)-yl)(2-(3-isopropyl-2-(2-methylpyridin-4-yl)-1H-indol-5-yl)oxazol-4-yl)methanone]: the values for the 50% inhibitory concentration (IC50) at human TLR7, on human TLR9 and against human TLR8 were 0.049 µM, 2.15 µM and 0.0023 µM, respectively.

Turning to `Cc1cc(-c2[nH]c3ccc(-c4nc(C(=O)NC5CCN(C(C)C)CC5)co4)cc3c2C(C)C)ccn1` [Example 173, 2-(3-isopropyl-2-(2-methylpyridin-4-yl)-1H-indol-5-yl)-N-(1-isopropylpiperidin-4-yl)oxazole-4-carboxamide], the half-maximal inhibitory concentration (IC50) on human TLR7 amounted to 0.046 µM; against human TLR9, 1.84 µM; against human TLR8, 0.0029 µM.

As for `Cc1cc(-c2[nH]c3ccc(-c4nnc(N)o4)cc3c2C(C)C)ccn1` [Example 174, 5-(3-isopropyl-2-(2-methylpyridin-4-yl)-1H-indol-5-yl)-1,3,4-oxadiazol-2-amine], the IC50 is 0.053 µM at human TLR7, 44.3 µM on human TLR9 and 0.014 µM at human TLR8.

Turning to `CNC(=O)CN1CCCC(c2nnc(-c3ccc4[nH]c(-c5ccnc(C)c5)c(C(C)C)c4c3)[nH]2)C1` (stereo not drawn) [Example 175, 2-(3-(5-(3-isopropyl-2-(2-methylpyridin-4-yl)-1H-indol-5-yl)-4H-1,2,4-triazol-3-yl)piperidin-1-yl)-N-methylacetamide], the half-inhibitory concentration (IC50) on human TLR7 is 0.56 µM; against human TLR9, above 50 µM; against human TLR8 it was 0.0074 µM.

Regarding `Cc1cc(-c2[nH]c3ccc(-c4nnc(C5CCCN(C(=O)CN(C)C)C5)[nH]4)cc3c2C(C)C)ccn1` (stereo not drawn) [Example 176, 2-(dimethylamino)-1-(3-(5-(3-isopropyl-2-(2-methylpyridin-4-yl)-1H-indol-5-yl)-4H-1,2,4-triazol-3-yl)piperidin-1-yl)ethan-1-one], the 50% inhibitory concentration (IC50) against human TLR7 came to 0.051 µM; against human TLR9, 1.92 µM; against human TLR8, 0.0063 µM.

`CC(C)c1c(-c2ccnc3[nH]ncc23)[nH]c2ccc(-c3ccnc4[nH]ncc34)cc12` [Example 177, 4,4′-(3-isopropyl-1H-indole-2,5-diyl)bis(1H-pyrazolo[3,4-b]pyridine)]: the half-inhibitory concentration (IC50) on human TLR7 amounted to 0.045 µM; at human TLR9, 24.1 µM; on human TLR8, 0.0037 µM.

For `Cc1cc(-c2[nH]c3ccc(-c4nnc(C5CCCNC5)[nH]4)cc3c2C(C)C)ccn1` (stereo not drawn) [Example 178, 3-isopropyl-2-(2-methylpyridin-4-yl)-5-(5-(piperidin-3-yl)-4H-1,2,4-triazol-3-yl)-1H-indole], the half-maximal inhibitory concentration (IC50) at human TLR7 was determined as 0.22 µM; against human TLR9 it was 3.99 µM; at human TLR8, 0.012 µM.

On to `Cc1cc(-c2[nH]c3ccc(-c4nnc(C5CCCC(N)C5)o4)cc3c2C(C)C)ccn1` (stereo not drawn) [Example 179, 3-(5-(3-isopropyl-2-(2-methylpyridin-4-yl)-1H-indol-5-yl)-1,3,4-oxadiazol-2-yl)cyclohexan-1-amine], for which the half-maximal inhibitory concentration (IC50) was 0.98 µM at human TLR7, 2.79 µM against human TLR9 and 0.006 µM against human TLR8.

Turning to `Cc1cc(-c2[nH]c3ccc(-c4nnc(C5CCCN(CC(=O)N(C)C)C5)[nH]4)cc3c2C(C)C)ccn1` (stereo not drawn) [Example 180, 2-(3-(5-(3-isopropyl-2-(2-methylpyridin-4-yl)-1H-indol-5-yl)-4H-1,2,4-triazol-3-yl)piperidin-1-yl)-N,N-dimethylacetamide], the concentration for half-maximal inhibition (IC50) on human TLR7 is 0.031 µM; at human TLR9, 0.872 µM; against human TLR8, 0.0022 µM.

In the case of `CC(C)c1c(-c2ccnc3n[nH]cc23)[nH]c2ccc(-c3nccs3)cc12` [Example 181, 2-(3-isopropyl-2-(2H-pyrazolo[3,4-b]pyridin-4-yl)-1H-indol-5-yl)thiazole], the IC50 at human TLR7 stood at 0.68 µM; at human TLR9, 35.1 µM; at human TLR8, 0.036 µM.
